The values below come from US20120302573A1, “METHODS OF INHIBITING PRO MATRIX METALLOPROTEINASE ACTIVATION” (priority 2011, published 2012).

Where a name gives a salt, the structure may show the parent alone.

Assay [1] concerns the target T1, proMMP9(20-445;ΔFnII) (SEQ ID NO:6) (Homo sapiens, UniProt P14780, DEL216-390).
T1 construct: amino acid pairs including: 29-215/391-444, 67-215/391-444, and 20-215/391-445, respectively; start methionine (N); made in house; host or cells: E. coli BL21(DE3) RIL
T1 sequence (P14780 with tags, fused parts or gaps DEL216-390): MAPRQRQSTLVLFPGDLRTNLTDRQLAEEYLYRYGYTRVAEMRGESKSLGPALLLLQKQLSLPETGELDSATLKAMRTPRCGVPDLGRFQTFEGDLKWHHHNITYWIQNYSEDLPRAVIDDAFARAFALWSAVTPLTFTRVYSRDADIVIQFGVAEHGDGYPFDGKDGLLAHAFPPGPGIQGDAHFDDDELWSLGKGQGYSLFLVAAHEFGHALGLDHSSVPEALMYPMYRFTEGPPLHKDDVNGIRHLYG
Briefly: ThermoFluor binding assay with proMMP9(20-445;ΔFnII). On the procedure:
(§1) The experiments were carried out using instruments available from Johnson & Johnson Pharmaceutical Research & Development, LLC. TF dye used in all experiments was […] (1,8-ANS) (Invitrogen: A-47).
(§2) Columns 12 and 24 were used as DMSO reference and contained no compound. […] Following compound dispense, protein and dye solutions were added to achieve the final assay volume of 3 μL.
(§3) Assay plates were robotically loaded onto a thermostatically controlled PCR-type thermal block and then heated from 40 to 90° C. at a ramp-rate of 1° C./min for all experiments. Fluorescence was measured by continuous illumination with UV light (Hamamatsu LC6) supplied via fiber optics and filtered through a band-pass filter (380-400 nm; >6 OD cutoff). Fluorescence emission of the entire 384-well plate was detected by measuring light intensity using a CCD camera (Sensys, Roper Scientific) filtered to detect 500±25 nm, resulting in simultaneous and independent readings of all 384 wells.
(§4) Thermodynamic parameters necessary for fitting compound binding for each proMMP were estimated by differential scanning calorimetry (DSC) and from ThermoFluor® data. The heat capacity of unfolding for each protein was estimated from the molecular weight and from ThermoFluor® dosing data.
The protein sample preparations included a desalting buffer exchange step via a PD-10 gravity column (GE Healthcare).
On the technique in general: In DSF a fluorescence change marks the thermal transition of the protein.

Assay [2] concerns the target T2, proMMP9(67-444;ΔFnII) (SEQ ID NO:5) (Homo sapiens, UniProt P14780, DEL216-390).
T2 construct: amino acid pairs including: 29-215/391-444, 67-215/391-444, and 20-215/391-445, respectively; start methionine (N); made in house; host or cells: E. coli BL21(DE3) RIL
T2 sequence (P14780 with tags, fused parts or gaps DEL216-390): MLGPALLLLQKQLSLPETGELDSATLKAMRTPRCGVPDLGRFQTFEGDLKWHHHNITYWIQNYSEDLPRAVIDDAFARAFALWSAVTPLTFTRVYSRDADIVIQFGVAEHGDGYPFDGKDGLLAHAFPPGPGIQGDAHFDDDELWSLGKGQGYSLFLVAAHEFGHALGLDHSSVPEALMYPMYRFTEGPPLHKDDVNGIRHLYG
Kind of assay: ThermoFluor binding assay with proMMP9(67-444;ΔFnII). On the procedure: as §1, §2, §3, §4
The protein sample preparations had to include a desalting buffer exchange step via a PD-10 gravity column (GE Healthcare).

The target of assay [3] is full-length proMMP9(1-707) activation by catalytic MMP3 (Homo sapiens, UniProt P14780, R574P). Briefly: ProMMP9/MMP3 DQ Gelatin Activation Assay.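 Also: readout is fluorescence of quenched fluorescein gelatin cut by activated MMP9, 30 min activation at 37 °C, inhibition relative to DMSO-only controls with EDTA as blank.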 It is filed as biochemical. Conditions: proMMP9 from COS-1 cells; read-out: ProMMP9/MMP3 DQ gel, IC50. Also noted: made in house; host or cells: COS-1 (proMMP9); E. coli (MMP3).
Sequence of full-length proMMP9(1-707) activation by catalytic MMP3 (P14780 20-707 R574P): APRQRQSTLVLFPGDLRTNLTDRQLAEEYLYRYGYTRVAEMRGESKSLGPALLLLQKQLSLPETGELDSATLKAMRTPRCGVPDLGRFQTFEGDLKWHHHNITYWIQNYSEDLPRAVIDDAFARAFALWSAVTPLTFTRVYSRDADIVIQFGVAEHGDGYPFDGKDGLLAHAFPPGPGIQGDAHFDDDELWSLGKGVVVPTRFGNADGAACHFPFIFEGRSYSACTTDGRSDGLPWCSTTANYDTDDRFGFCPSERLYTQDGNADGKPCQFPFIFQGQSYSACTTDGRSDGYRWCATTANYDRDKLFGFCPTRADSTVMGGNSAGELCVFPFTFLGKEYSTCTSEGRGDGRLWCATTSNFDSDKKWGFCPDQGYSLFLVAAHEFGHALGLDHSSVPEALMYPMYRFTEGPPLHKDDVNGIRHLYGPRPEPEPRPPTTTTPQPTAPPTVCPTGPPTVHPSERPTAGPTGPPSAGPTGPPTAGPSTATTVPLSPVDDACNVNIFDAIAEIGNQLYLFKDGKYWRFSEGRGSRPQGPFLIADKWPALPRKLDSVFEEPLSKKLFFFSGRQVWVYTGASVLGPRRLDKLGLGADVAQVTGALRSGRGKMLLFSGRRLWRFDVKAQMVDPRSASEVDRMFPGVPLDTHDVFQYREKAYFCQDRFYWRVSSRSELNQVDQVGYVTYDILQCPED

A word on the Kd: it is the equilibrium constant for the complex coming apart. The low end stands for a tighter complex, the high end for a looser complex. For `Cc1nc(C)c(-c2csc(Nc3cccc(C(N)=O)c3)n2)s1` [Example 9, 3-(2′,4′-Dimethyl-[4,5′]bithiazolyl-2-ylamino)-benzamide], the results for the Kd in assay [1] and in assay [2] were 19 µM and more than 81 µM, respectively.

As for `CC(=O)Nc1nc(C)c(-c2csc(Nc3ccccc3OCC3CC3)n2)s1` [Example 19, N-[2-(2-Cyclopropylmethoxy-phenylamino)-4′-methyl-[4,5′]bithiazolyl-2′-yl]-acetamide.TFA], the Kd in assay [1] was more than 52 µM; in assay [2] it was 3.86 µM.

As for `COc1ccc(Nc2nc(-c3sc(NC(C)=O)nc3C)cs2)c(OC)c1` [Example 23, N-[2-(2,4-Dimethoxy-phenylamino)-4′-methyl-[4,5′]bithiazolyl-2′-yl]-acetamide.TFA], the results for the Kd in assay [1] and in assay [2] were more than 35 µM and 5.53 µM, respectively. For the same compound, the IC50 in assay [3] was determined as 26.2 µM.

Consider `c1cncc(-c2csc(Nc3ccccc3OCc3cccs3)n2)c1` [Example 24, (4-Pyridin-3-yl-thiazol-2-yl)-[2-(thiophen-2-ylmethoxy)-phenyl]-amine.TFA], for which the equilibrium dissociation constant (Kd) in assay [1] is 0.37 µM; in assay [2], more than 38 µM. Further, the IC50 in assay [3] was more than 20 µM.

For `CCCOc1ccccc1Nc1nc(-c2cccnc2)cs1` [Example 25, (2-Propoxy-phenyl)-(4-pyridin-3-yl-thiazol-2-yl)-amine], the Kd came to 12.5 µM in assay [1] and 16.3 µM in assay [2]. In addition, the IC50 in assay [3] is more than 20 µM.

Regarding `COc1ccccc1Nc1nc(-c2cnccc2C)cs1` [Example 29, (2-Methoxy-phenyl)-[4-(4-methyl-pyridin-3-yl)-thiazol-2-yl]-amine.TFA], the IC50 in assay [3] was found to be 14.4 µM.

Regarding `CC(=O)Nc1nc(C)c(-c2csc(Nc3ccccc3OC(F)(F)F)n2)s1` [Example 31, N-[4′-Methyl-2-(2-trifluoromethoxy-phenylamino)-[4,5′]bithiazolyl-2′-yl]-acetamide.HCl], the Kd in assay [1] came out at 3.34 µM; in assay [2], 0.645 µM. Further, in assay [3], the IC50 amounted to 3.3 µM.

Take `CC(=O)Nc1nc(C)c(-c2csc(Nc3ccccc3C(F)(F)F)n2)s1` [Example 32, N-[4′-Methyl-2-(2-trifluoromethyl-phenylamino)-[4,5′]bithiazolyl-2′-yl]-acetamide.TFA]: the equilibrium dissociation constant (Kd) in assay [1] is more than 9.2 µM; in assay [2], 9.06 µM. Further, the IC50 in assay [3] is more than 20 µM.

On to `CSc1ccccc1Nc1nc(-c2sc(NC(C)=O)nc2C)cs1` [Example 33, N-[4′-Methyl-2-(2-methylsulfanyl-phenylamino)-[4,5′]bithiazolyl-2′-yl]-acetamide.HCl], for which the Kd in assay [1] came out at 3.75 µM; in assay [2], 0.695 µM. In assay [3], the IC50 was determined as 2.9 µM.

Regarding `CNc1nc(C)c(-c2csc(Nc3ccccc3OC)n2)s1` [Example 35, N^2-(2-Methoxy-phenyl)-4′,N^2′-dimethyl-[4,5′]bithiazolyl-2,2′-diamine], the Kd in assay [1] amounted to 10.3 µM; in assay [2] it was 3.92 µM. Further, the IC50 in assay [3] is 7 µM.

In the case of `COc1ccccc1Nc1nc(-c2sc(N(C)C(C)=O)nc2C)cs1` [Example 36, N-[2-(2-Methoxy-phenylamino)-4′-methyl-[4,5′]bithiazolyl-2′-yl]-N-methyl-acetamide.TFA], the Kd in assay [1] and in assay [2] was more than 11 µM each time. In assay [3], the IC50 was found to be 1.7 µM.

Regarding `CCNc1nc(C)c(-c2csc(Nc3ccccc3OC)n2)s1` [Example 38], the Kd in assay [1] and in assay [2] was more than 8.3 µM in each case. In assay [3], the IC50 is 9.6 µM.

With `CC(=O)Nc1nc(C)c(-c2csc(Nc3ccccc3Cl)n2)s1` [Example 39, N-[2-(2-Chloro-phenylamino)-4′-methyl-[4,5′]bithiazolyl-2′-yl]-acetamide.HCl], the dissociation constant Kd in assay [1] was determined as 6.35 µM; in assay [2], 2.49 µM. In assay [3], the IC50 was found to be 17.1 µM.

As to `CC(=O)Nc1nc(C)c(-c2csc(Nc3ccccc3F)n2)s1` [Example 40, N-[2-(2-Fluoro-phenylamino)-4′-methyl-[4,5′]bithiazolyl-2′-yl]acetamide.TFA], the Kd is more than 18 µM in assay [1] and 16.3 µM in assay [2]. In addition, the IC50 in assay [3] is more than 20 µM.

Consider `COc1ccc(Nc2nc(-c3sc(N)nc3C)cs2)c(OC)c1` [Example 48, N^2-(2,4-Dimethoxy-phenyl)-4′-methyl-[4,5′]bithiazolyl-2,2′-diamine], for which the dissociation constant Kd in assay [1] is 17.5 µM; in assay [2], 4.73 µM.

Take `COc1ccccc1Nc1nc(C2(C)CC3(CC(C)OC3=O)C(=O)O2)cs1` (stereo not shown) [Example 49, 3-[2-(2-Methoxy-phenylamino)-thiazol-4-yl]-3,8-dimethyl-2,7-dioxa-spiro[4.4]nonane-1,6-dione]: the dissociation constant Kd in assay [1] is more than 17 µM; in assay [2], 8.7 µM. The IC50 in assay [3] was 5.7 µM.

In the case of `COc1ccccc1Nc1nc(-c2sc(NC(=O)c3ccccc3)nc2C)cs1` [Example 50, N-[2-(2-Methoxy-phenylamino)-4′-methyl-[4,5′]bithiazolyl-2′-yl]-benzamide], the Kd is more than 14 µM in assay [1] and 4.05 µM in assay [2]. Besides, the IC50 in assay [3] is 21.2 µM.

Consider `COc1ccc(OC)c(Nc2nc(-c3c(C)nc4ccccn34)cs2)c1` [Example 51, (2,5-Dimethoxy-phenyl)-[4-(2-methyl-imidazo[1,2-a]pyridin-3-yl)-thiazol-2-yl]-amine], for which the Kd in assay [1] was more than 16 µM; in assay [2], more than 15 µM. The IC50 in assay [3] came out at 10.1 µM.

As to `COc1ccc(OC)c(Nc2nc(-c3cccnc3)cs2)c1` [Example 54, (2,5-Dimethoxy-phenyl)-(4-pyridin-3-yl-thiazol-2-yl)-amine], the dissociation constant (Kd) is more than 65 µM in assay [1] and 17.9 µM in assay [2]. Also, in assay [3], the IC50 was 16.1 µM.

Consider `COc1ccc(Cl)cc1Nc1nc(-c2cccnc2)cs1` [Example 56, (5-Chloro-2-methoxy-phenyl)-(4-pyridin-3-yl-thiazol-2-yl)-amine], for which the equilibrium dissociation constant (Kd) in assay [1] was more than 70 µM; in assay [2], 14.6 µM. In addition, in assay [3], the IC50 was more than 20 µM.

With `CC(=O)Nc1nc(C)c(-c2csc(Nc3ccccc3C)n2)s1` [Example 63, N-(4′-Methyl-2-o-tolylamino-[4,5′]bithiazolyl-2′-yl)-acetamide], the Kd in assay [1] stood at 19.6 µM; in assay [2], 5.13 µM. Besides, the IC50 in assay [3] worked out at 28.2 µM.

`CCOc1ccccc1Nc1nc(-c2sc(NC(C)=O)nc2C)cs1` [Example 66, N-[2-(2-Ethoxy-phenylamino)-4′-methyl-[4,5′]bithiazolyl-2′-yl]-acetamide]: the Kd in assay [1] and in assay [2] was more than 6.1 µM in each case. Further, in assay [3], the IC50 was 1.9 µM.

On to `COc1ccccc1Nc1nc(C2(C)CC3(CC(C)(C)OC3=O)C(=O)O2)cs1` (stereo not shown) [Example 69, 3-[2-(2-Methoxy-phenylamino)-thiazol-4-yl]-3,8,8-trimethyl-2,7-dioxa-spiro[4.4]nonane-1,6-dione], for which the equilibrium dissociation constant (Kd) in assay [1] and in assay [2] was more than 15 µM throughout. Further, the IC50 in assay [3] came to 11.2 µM.

Take `CCOc1ccccc1Nc1nc(-c2cnc3ncccn23)cs1` [Example 71, (2-Ethoxy-phenyl)-(4-imidazo[1,2-a]pyrimidin-3-yl-thiazol-2-yl)-amine]: the dissociation constant (Kd) in assay [1] was 11.7 µM; in assay [2], 6.56 µM. The IC50 in assay [3] stood at 6.9 µM.

Take “(5-Chloro-2-methoxy-phenyl)-(4-imidazo[1,2-a]pyrazin-3-yl-thiazol-2-yl)-amine [Example 72]”: the Kd is 6.53 µM in assay [1] and more than 58 µM in assay [2]. The IC50 in assay [3] turned out to be 3.1 µM.
